According to patent US20260013501A1, “HERBICIDAL DERIVATIVES” (SYNGENTA CROP PROTECTION AG, priority 2022, published 2026):

Legend:
Format in all cases: in vivo
[1] = tested on: Setaria faberi (SETFA); test: Pre-emergence Test (Table B1), SETFA; details: evaluated after 13 days
[2] = tested on: Ipomoea hederacea (IPOHE); test: Pre-emergence Test (Table B1), IPOHE; details: evaluated after 13 days
[3] = tested on: Echinochloa crus-galli (ECHCG); test: Pre-emergence Test (Table B1), ECHCG; details: evaluated after 13 days
[4] = tested on: Zea mays (ZEAMX); test: Pre-emergence Test (Table B1), ZEAMX; details: evaluated after 13 days
[5] = tested on: Amaranthus retoflexus (AMARE); test: Pre-emergence Test (Table B1), AMARE; details: evaluated after 13 days
[6] = tested on: Setaria faberi (SETFA); test: Post-emergence Test (Table B2), SETFA; design: key: five-point scale: 5=81-100%, 4=61-80%, 3=41-60%, 2=21-40%, 1=0-20% damage; details: evaluated after 13 days
Description: (§1) Seeds of a variety of test species are sown in standard soil in pots (Ipomoea hederacea (IPOHE), Zea mays (ZEAMX), Echinochloa crus-galli (ECHCG), Amaranthus palmeri (AMAPA), (Amaranthus retoflexus (AMARE), and (Setaria faberi (SETFA)). After 8 days cultivation under controlled conditions in a glasshouse (at 24° C./16° C., day/night; 14 hours light; 65% humidity), the plants are sprayed with an aqueous spray solution derived from the formulation of the technical active ingredient in acetone/water (50:50) solution containing 0.5% Tween 20 (polyoxyethelyene sorbitan monolaurate, CAS RN 9005-64-5). Rate of application is shown in g/ha in the tables below. The test plants are then grown in a glasshouse under controlled conditions in a glasshouse (at 24° C./16° C., day/night; 14 hours light; 65% humidity) and watered twice daily. After 13 days the test is evaluated for the percentage damage caused to the plant. The biological activities are shown in the following table on a five-point scale (5=81-100%; 4=61-80%; 3=41-60%; 2=21-40%; 1=0-20%; -=not tested).

[7] = tested on: Amaranthus retoflexus (AMARE); test: Post-emergence Test (Table B2), AMARE; design: key: five-point scale: 5=81-100%, 4=61-80%, 3=41-60%, 2=21-40%, 1=0-20% damage; details: evaluated after 13 days
Description: as §1

[8] = tested on: Amaranthus palmeri (AMAPA); test: Post-emergence Test (Table B2), AMAPA; design: key: five-point scale: 5=81-100%, 4=61-80%, 3=41-60%, 2=21-40%, 1=0-20% damage; details: evaluated after 13 days
Description: as §1

[9] = tested on: Zea mays (ZEAMX); test: Post-emergence Test (Table B2), ZEAMX; design: key: 5-point damage scale: 5=81-100%, 4=61-80%, 3=41-60%, 2=21-40%, 1=0-20%; details: evaluated after 13 days
Method in brief: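 Score: % damage at 13 d on a 5-point scale (5=81-100%; 4=61-80%; 3=41-60%; 2=21-40%; 1=0-20%). Seeds sown in pots, sprayed with test article in acetone/water 50:50 + 0.5% Tween 20; rate in g/ha. Glasshouse 24/16 °C, 14 h light, 65% RH, watered twice daily.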

[10] = tested on: Echinochloa crus-galli (ECHCG); test: Post-emergence Test (Table B2), ECHCG; design: key: 5-point damage scale: 5=81-100%, 4=61-80%, 3=41-60%, 2=21-40%, 1=0-20%; details: evaluated after 13 days
Description: as §1

[11] = tested on: Ipomoea hederacea (IPOHE); test: Post-emergence Test (Table B2), IPOHE; design: key: five-point scale: 5=81-100%, 4=61-80%, 3=41-60%, 2=21-40%, 1=0-20% damage; details: evaluated after 13 days
Description: as §1

[12] = tested on: Amaranthus palmeri (AMAPA); test: Pre-emergence Test (Table B1), AMAPA; details: Rate 250 g/Ha, evaluated after 13 days

CCn1c(Cc2ccc(Cl)cc2)cc(=O)c(C(=O)O)c1-c1ccc(Cl)c(Cl)c1 [Compound 7, 6-[(4-chlorophenyl)methyl]-2-(3,4-dichlorophenyl)-1-ethyl-4-oxo-pyridine-3-carboxylic acid]
0: Pre-emergence Test, percentage damage caused to the plant (five-point scale), SETFA ([1]; Rate 1000 g/Ha) | Pre-emergence Test, percentage damage caused to the plant (five-point scale), IPOHE ([2]; Rate 1000 g/Ha) | Pre-emergence Test, percentage damage caused to the plant (five-point scale), ECHCG ([3]; Rate 1000 g/Ha) | Pre-emergence Test, percentage damage caused to the plant (five-point scale), ZEAMX ([4]; Rate 1000 g/Ha) | Pre-emergence Test, percentage damage caused to the plant (five-point scale), AMARE ([5]; Rate 1000 g/Ha)

CCn1c(Cc2ccccc2Cl)cc(=O)c(C(=O)O)c1-c1ccc(Cl)c(Cl)c1 [Compound 16, 6-[(2-chlorophenyl)methyl]-2-(3,4-dichlorophenyl)-1-ethyl-4-oxo-pyridine-3-carboxylic acid]
0: percentage damage caused to the plant, SETFA ([6]; rate 1000 g/Ha) | Pre-emergence Test, percentage damage caused to the plant (five-point scale), IPOHE ([2]; Rate 1000 g/Ha) | percentage damage caused to the plant, AMARE ([7]; rate 1000 g/Ha) | Pre-emergence Test, percentage damage caused to the plant (five-point scale), ECHCG ([3]; Rate 1000 g/Ha) | percentage damage caused to the plant, AMAPA ([8]; rate 1000 g/Ha) | percentage damage caused to the plant, ZEAMX ([9]; rate 1000 g/Ha) | percentage damage caused to the plant, ECHCG ([10]; rate 1000 g/Ha)

CCn1c(Cc2cccc(C(C)C)c2)cc(=O)c(C(=O)O)c1-c1ccc(Cl)c(Cl)c1 [Compound 23, 2-(3,4-dichlorophenyl)-1-ethyl-6-[(3-isopropylphenyl)methyl]-4-oxo-pyridine-3-carboxylic acid]
0: percentage damage caused to the plant, IPOHE ([11]; rate 1000 g/Ha) | percentage damage caused to the plant, ZEAMX ([9]; rate 1000 g/Ha) | percentage damage caused to the plant, ECHCG ([10]; rate 1000 g/Ha)

CCn1c(Cc2ccccc2OC)cc(=O)c(C(=O)O)c1-c1ccc(Cl)c(Cl)c1 [Compound 24, 2-(3,4-dichlorophenyl)-1-ethyl-6-[(2-methoxyphenyl)methyl]-4-oxo-pyridine-3-carboxylic acid]
0: percentage damage caused to the plant, IPOHE ([11]; rate 1000 g/Ha) | percentage damage caused to the plant, ZEAMX ([9]; rate 1000 g/Ha) | percentage damage caused to the plant, ECHCG ([10]; rate 1000 g/Ha)

CCn1c(Cc2ccc(C3CC3)cc2)cc(=O)c(C(=O)O)c1-c1ccc(Cl)c(Cl)c1 [Compound 25, 6-[(4-cyclopropylphenyl)meth-yl]-2-(3,4-dichlorophenyl)-1-ethyl-4-oxo-pyridine-3-carboxylic acid]
0: percentage damage caused to the plant, IPOHE ([11]; rate 1000 g/Ha) | percentage damage caused to the plant, ECHCG ([10]; rate 1000 g/Ha)

CCn1c(Cc2cccc(SC)c2)cc(=O)c(C(=O)O)c1-c1ccc(Cl)c(Cl)c1 [Compound 31, 2-(3,4-dichlorophenyl)-1-ethyl-6-[(3-methylsulfanylphenyl)methyl]-4-oxo-pyridine-3-carboxylic acid]
0: percentage damage caused to the plant, IPOHE ([11]; rate 1000 g/Ha) | percentage damage caused to the plant, ZEAMX ([9]; rate 1000 g/Ha) | percentage damage caused to the plant, ECHCG ([10]; rate 1000 g/Ha)

CCn1c(Cc2ccc(OC)c(OC)c2)cc(=O)c(C(=O)O)c1-c1ccc(Cl)c(Cl)c1 [Compound 34, 2-(3,4-dichlorophenyl)-6-[(3,4-dimethoxyphenyl)meth-yl]-1-ethyl-4-oxo-pyridine-3-carboxylic acid]
0: percentage damage caused to the plant, IPOHE ([11]; rate 1000 g/Ha) | percentage damage caused to the plant, ZEAMX ([9]; rate 1000 g/Ha) | percentage damage caused to the plant, ECHCG ([10]; rate 1000 g/Ha)

CCn1c(Cc2cccc(OC)c2OC)cc(=O)c(C(=O)O)c1-c1ccc(Cl)c(Cl)c1 [Compound 38, 2-(3,4-dichlorophenyl)-6-[(2,3-dimethoxyphenyl)meth-yl]-1-ethyl-4-oxo-pyridine-3-carboxylic acid]
0: percentage damage caused to the plant, IPOHE ([11]; rate 1000 g/Ha) | percentage damage caused to the plant, ZEAMX ([9]; rate 1000 g/Ha) | percentage damage caused to the plant, ECHCG ([10]; rate 1000 g/Ha)

CCn1c(Cc2cccc(OC)n2)cc(=O)c(C(=O)O)c1-c1ccc(Cl)c(Cl)c1 [Compound 60, 2-(3,4-dichlorophenyl)-1-ethyl-6-[(6-methoxy-2-pyridyl)methyl]-4-oxo-pyridine-3-carboxylic acid]
0: Pre-emergence Test, percentage damage caused to the plant (five-point scale), SETFA ([1]; Rate 250 g/Ha) | Pre-emergence Test, percentage damage caused to the plant (five-point scale), ZEAMX ([4]; Rate 250 g/Ha)

CCn1c(Cc2ccc(OC)cc2F)cc(=O)c(C(=O)O)c1-c1ccc(Cl)c(Cl)c1 [Compound 89, 2-(3,4-dichlorophenyl)-1-ethyl-6-[(2-fluoro-4-methoxy-phenyl)methyl]-4-oxo-pyridine-3-carboxylic acid]
0: percentage damage caused to the plant, SETFA ([6]; rate 250 g/Ha) | Pre-emergence Test, percentage damage caused to the plant (five-point scale), IPOHE ([2]; Rate 250 g/Ha) | percentage damage caused to the plant, AMARE ([7]; rate 250 g/Ha) | Pre-emergence Test, percentage damage caused to the plant (five-point scale), ZEAMX ([4]; Rate 250 g/Ha) | percentage damage caused to the plant, AMAPA ([8]; rate 250 g/Ha) | percentage damage caused to the plant, ECHCG ([10]; rate 250 g/Ha)

CCn1c(Cc2ccc(F)c(C(=O)O)n2)cc(=O)c(C(=O)O)c1-c1ccc(Cl)c(Cl)c1 [Compound 98, 6-[(6-carboxy-5-fluoro-2-pyridyl)methyl]-2-(3,4-dichlorophenyl)-1-ehtyl-4-oxo-pyridine-3-carboxylic acid]
0: percentage damage caused to the plant, IPOHE ([11]; rate 1000 g/Ha) | Pre-emergence Test, percentage damage caused to the plant (five-point scale), ZEAMX ([4]; Rate 1000 g/Ha) | percentage damage caused to the plant, ZEAMX ([9]; rate 1000 g/Ha)

CCn1c(Cc2cc(O)cc(F)n2)cc(=O)c(C(=O)O)c1-c1ccc(Cl)c(Cl)c1 [Compound 104, 2-(3,4-dichlorophenyl)-1-ethyl-6-[(6-fluoro-4-hydroxy-2-pyridyl)methyl]-4-oxo-pyridine-3-carboxylic acid]
0: percentage damage caused to the plant, IPOHE ([11]; rate 1000 g/Ha)

CCn1c(Cc2ccc(C#N)c(=O)[nH]2)cc(=O)c(C(=O)O)c1-c1ccc(Cl)c(Cl)c1 [Compound 114, 6-[(5-cyano-6-oxo-1H-pyridin-2-yl)methyl]-2-(3,4-dichlorophenyl)-1-ethyl-4-oxo-pyridine-3-carboxylic acid]
0: percentage damage caused to the plant, SETFA ([6]; rate 250 g/Ha) | percentage damage caused to the plant, AMARE ([7]; rate 250 g/Ha) | percentage damage caused to the plant, AMAPA ([8]; rate 250 g/Ha) | percentage damage caused to the plant, ZEAMX ([9]; rate 250 g/Ha) | percentage damage caused to the plant, ECHCG ([10]; rate 250 g/Ha)

CCn1c(Cc2cccc(Cl)n2)cc(=O)c(C(=O)O)c1-c1ccc(OC(C)C)c(Cl)c1 [Compound 132, 2-(3-chloro-4-isopropoxy-phenyl)-6-[(6-chloro-2-pyridyl)methyl]-1-ethyl-4-oxo-pyridine-3-carboxylic acid]
0: percentage damage caused to the plant, IPOHE ([11]; rate 250 g/Ha) | Pre-emergence Test, percentage damage caused to the plant (five-point scale), IPOHE ([2]; Rate 250 g/Ha) | Pre-emergence Test, percentage damage caused to the plant (five-point scale), ECHCG ([3]; Rate 250 g/Ha) | Pre-emergence Test, percentage damage caused to the plant (five-point scale), ZEAMX ([4]; Rate 250 g/Ha) | percentage damage caused to the plant, AMAPA ([8]; rate 250 g/Ha) | Pre-emergence Test, percentage damage caused to the plant (five-point scale), AMARE ([5]; Rate 250 g/Ha)

CCn1c(Cc2ccn[nH]c2=O)cc(=O)c(C(=O)O)c1-c1ccc(Cl)c(Cl)c1 [Compound 142, 2-(3,4-dichlorophenyl)-1-ethyl-4-oxo-6-[(6-oxo-1H-pyridazin-5-yl)methyl]pyridine-3-carboxylic acid]
0: Pre-emergence Test, percentage damage caused to the plant (five-point scale), SETFA ([1]; Rate 250 g/Ha) | Pre-emergence Test, percentage damage caused to the plant (five-point scale), ECHCG ([3]; Rate 250 g/Ha) | Pre-emergence Test, percentage damage caused to the plant (five-point scale), ZEAMX ([4]; Rate 250 g/Ha)

CCn1c(Cc2nccnc2Cl)cc(=O)c(C(=O)O)c1-c1ccc(Cl)c(Cl)c1 [Compound 144, 6-[(3-chloropyrazin-2-yl)methyl]-2-(3,4-dichlorophenyl)-1-ethyl-4-oxo-pyridine-3-carboxylic acid]
0: Pre-emergence Test, percentage damage caused to the plant (five-point scale), SETFA ([1]; Rate 250 g/Ha) | Pre-emergence Test, percentage damage caused to the plant (five-point scale), AMAPA [12] | Pre-emergence Test, percentage damage caused to the plant (five-point scale), IPOHE ([2]; Rate 250 g/Ha) | Pre-emergence Test, percentage damage caused to the plant (five-point scale), ECHCG ([3]; Rate 250 g/Ha) | Pre-emergence Test, percentage damage caused to the plant (five-point scale), ZEAMX ([4]; Rate 250 g/Ha)

CCn1c(Cc2cnc3ccccc3n2)cc(=O)c(C(=O)O)c1-c1ccc(Cl)c(Cl)c1 [Compound 145, 2-(3,4-dichlorophenyl)-1-ethyl-4-oxo-6-(quinoxalin-2-ylmethyl)pyridine-3-carboxylic acid]
0: Pre-emergence Test, percentage damage caused to the plant (five-point scale), SETFA ([1]; Rate 250 g/Ha) | Pre-emergence Test, percentage damage caused to the plant (five-point scale), IPOHE ([2]; Rate 250 g/Ha) | Pre-emergence Test, percentage damage caused to the plant (five-point scale), ZEAMX ([4]; Rate 250 g/Ha) | Pre-emergence Test, percentage damage caused to the plant (five-point scale), AMARE ([5]; Rate 250 g/Ha)
